Test results: patent publication US20260125374A1, “PI3K-ALPHA INHIBITORS AND METHODS OF MAKING AND USING THE SAME” (Relay Therapeutics, Inc., priority 2021, published 2026)
“Also recorded” adds a separate entry of the source.

How the values were obtained:
Type in all cases: physicochemical
Hygroscopicity by DVS = conditions: for 1st Desorp. (%) / 1st Sorp. (%) / 2nd Desorp. (%) / 2nd Sorp. (%): DVS 25° C.
Procedure: • Method 1 (for I-1 Form A and I-3 Form A) • Instrument Intrinsic, Advantage or Adventure • Total gas flow 200 sccm • Oven temperature 25° C. • Solvent Water • Method Cycle: 40-0-95-0-40% RH • Stage Step: 10% • Equilibrium: 0.002 dm/dt (%/min) • Minimum dm/dt stability duration: 60 min • Maximum dm/dt stage time: 360 min • Method 2 (for I-4 Form A) • Instrument Intrinsic, Advantage or Adventure • Total gas flow 200 sccm • Oven temperature 25° C. • Solvent Water • Method Cycle: 40-95-0-95-40% RH • Stage Step: 10% • Equilibrium: 0.002 dm/dt (%/min) • Minimum dm/dt stability duration: 60 min • Maximum dm/dt stage time: 360 min
I-1 Form A is hygroscopic. It absorbs about 5.5% water by weight from 40% RH to 95% RH. […] It absorbs about 40% water by weight from 40% RH to 95% RH. Form changed after the DVS test. […] It starts to absorb water when RH>40% and potential hydrate form generates at high humidity based on DVS data. The sorption and desorption are reversible.
Water sorption and desorption behavior of I-1 Form A, I-3 Form A, and I-4 Form A was investigated by DVS at 25° C. with a cycle of 40-0-95-0-40% RH, dm/dt 0.002, min. equilibration time 60 min and max. equilibration time 360 min. XRPD was measured after the DVS test to determine form change.

[1] = Solution stability at 25° C.
Procedure: Solution stability of I-1 Form A and I-3 Form A was investigated in methanol and THF/ACN (2:1, v/v) at 25° C. Target concentration is 4 mg/mL.
Accurate 4 mg of I-1 Form A, 5.13 mg of I-3 Form A was weighed into a 8 mL glass vial, respectively. The salt amount used is equivalent to 4 mg anhydrous free form.

[2] = Salt screening (XRPD, chiral purity of hits)
Procedure: Based on the pKa of I-1 free form, 23 counter ions were selected as salt/cocrystal forming agents. Methanol, acetone and isopropyl acetate were used as screening solvents. 1.0 equivalent of selected counter ions/coformers was applied for salt screening. Slurry equilibration, slow evaporation and anti-solvent addition were used as crystallization methods. In total, about 70 screening experiments were conducted.
About 50 mg of I-1 Form A were added to a suitable amount of solvent and 1.0 equivalent of counter ions were added under stirring at 50° C. for 2 hours and then at 25° C. for at least 12 hours. MeOH, acetone and IPAc were used as screening solvents.
Obtained suspensions were taken out and centrifuged. Solids obtained were analyzed by XRPD and salt screening results were summarized in Table 5.1, Table 5.2, and Table 5.3.

[3] = 25° C., MeOH, 0 h, listed as I-3 Form A
[4] = 25° C., MeOH, 6 h, listed as I-3 Form A
[5] = 25° C., MeOH, 24 h, listed as I-3 Form A
[6] = 25° C., THF/ACN(2:1, v/v), 0 h, listed as I-3 Form A
[7] = 25° C., THF/ACN(2:1, v/v), 6 h, listed as I-3 Form A
[8] = 25° C., THF/ACN(2:1, v/v), 24 h, listed as I-3 Form A
[9] = crystalline hits of salt screening, listed as I-3 Form A

Structure (SMILES): N#Cc1c(-c2cc(NC(=O)c3cc(F)cc(C(F)(F)F)c3)c3c(c2)C(=O)N[C@H]3c2cc(F)ccc2Cl)ccc2ncnn12 [Compound I-3]
- 1st Desorp. (%) (Hygroscopicity by DVS; 0% RH, listed as I-3 Form A): 0.05%
- 1st Sorp. (%) (Hygroscopicity by DVS; 0% RH, listed as I-3 Form A): 0.05%
- 2nd Desorp. (%) (Hygroscopicity by DVS; 0% RH, listed as I-3 Form A): 0.00%
- 2nd Sorp. (%) (Hygroscopicity by DVS; 0% RH, listed as I-3 Form A): 0.00%
- 2nd Desorp. (%) (Hygroscopicity by DVS; 10% RH): 0.11%
- 1st Desorp. (%) (Hygroscopicity by DVS; 10% RH, listed as I-3 Form A): 0.16%
- 1st Sorp. (%) (Hygroscopicity by DVS; 10% RH, listed as I-3 Form A): 0.15%
- 2nd Sorp. (%) (Hygroscopicity by DVS; 10% RH, listed as I-3 Form A): 0.10%
- 1st Desorp. (%) (Hygroscopicity by DVS; 20% RH, listed as I-3 Form A): 0.27%
- 1st Sorp. (%) (Hygroscopicity by DVS; 20% RH, listed as I-3 Form A): 0.26%
- 2nd Desorp. (%) (Hygroscopicity by DVS; 20% RH, listed as I-3 Form A): 0.22%
- 2nd Sorp. (%) (Hygroscopicity by DVS; 20% RH, listed as I-3 Form A): 0.21%
- 1st Desorp. (%) (Hygroscopicity by DVS; 30% RH, listed as I-3 Form A): 0.40%
- 1st Sorp. (%) (Hygroscopicity by DVS; 30% RH, listed as I-3 Form A): 0.38%
- 2nd Desorp. (%) (Hygroscopicity by DVS; 30% RH, listed as I-3 Form A): 0.37%
- 2nd Sorp. (%) (Hygroscopicity by DVS; 30% RH, listed as I-3 Form A): 0.35%
- 1st Desorp. (%) (Hygroscopicity by DVS; 40% RH, listed as I-3 Form A): 0.69%
- 1st Sorp. (%) (Hygroscopicity by DVS; 40% RH, listed as I-3 Form A): 0.67%
- 2nd Desorp. (%) (Hygroscopicity by DVS; 40% RH, listed as I-3 Form A): 2.11%
- 2nd Sorp. (%) (Hygroscopicity by DVS; 40% RH, listed as I-3 Form A): 0.81%
- 1st Sorp. (%) (Hygroscopicity by DVS; 50% RH, listed as I-3 Form A): 2.34%
- 2nd Desorp. (%) (Hygroscopicity by DVS; 50% RH, listed as I-3 Form A): 2.44%
- 1st Sorp. (%) (Hygroscopicity by DVS; 60% RH, listed as I-3 Form A): 2.53%
- 2nd Desorp. (%) (Hygroscopicity by DVS; 60% RH, listed as I-3 Form A): 2.64%
- 1st Sorp. (%) (Hygroscopicity by DVS; 70% RH, listed as I-3 Form A): 2.84%
- 2nd Desorp. (%) (Hygroscopicity by DVS; 70% RH, listed as I-3 Form A): 4.17%
- 1st Sorp. (%) (Hygroscopicity by DVS; 80% RH, listed as I-3 Form A): 4.29%
- 2nd Desorp. (%) (Hygroscopicity by DVS; 80% RH, listed as I-3 Form A): 4.45%
- 1st Sorp. (%) (Hygroscopicity by DVS; 90% RH, listed as I-3 Form A): 4.64%
- 2nd Desorp. (%) (Hygroscopicity by DVS; 90% RH, listed as I-3 Form A): 4.76%
- 1st Sorp. (%) (Hygroscopicity by DVS; 95% RH, listed as I-3 Form A): 5.36%
- 2nd Desorp. (%) (Hygroscopicity by DVS; 95% RH, listed as I-3 Form A): 5.36%
- form after the DVS test (XRPD) (Hygroscopicity by DVS; listed as I-3 Form A): still I-3 Form A
- Chemical purity [1, 3]: 99.3%
- Chiral purity [1, 3]: 98.3%
- Chemical purity [1, 4]: 99.3%
- Chiral purity [1, 4]: 98.3%
- Chemical purity [1, 5]: 99.4%
- Chiral purity [1, 5]: 98.3%
- Chemical purity [1, 6]: 99.2%
- Chiral purity [1, 6]: 98.3%
- Chemical purity [1, 7]: 99.3%
- Chiral purity [1, 7]: 98.3%
- Chemical purity [1, 8]: 99.4%
- Chiral purity [1, 8]: 98.3%
- Initial chiral purity ([1]; before dissolution, listed as I-3 Form A): Initial chiral purity: 98.6%
- racemization in solution ([1]; methanol and THF/ACN (2:1, v/v), 25° C., 4 mg/mL): no racemization
- chemical stability in solution ([1]; methanol and THF/ACN (2:1, v/v), 25° C., at least 24 h, 4 mg/mL, listed as I-3 Form A): chemically stable; also recorded: good solution stability
- Salt screening result (slurry crystallization) ([2]; 1.0 equiv. p-toluenesulfonic acid, Acetone): + (I-3 Form A) (Salt hits)
- Salt screening result (slurry crystallization) ([2]; 1.0 equiv. p-toluenesulfonic acid, Isopropyl acetate): + (I-3 Form A) (Salt hits)
- Salt screening result (slurry crystallization) ([2]; 1.0 equiv. p-toluenesulfonic acid, MeOH): + (I-3 Form A) (Salt hits)
- chiral stability in salt screening and scale up solvents ([2]; MeOH, acetone and IPAc, acetone): good chiral stability
- Chiral purity (by HPLC) [2, 9]: 99.8%
- Crystallinity (By XRPD) [2, 9]: High
- Chiral purity of salt screening solid ([2]; slurry, 1.0 equiv. p-toluenesulfonic acid, Acetone): Chiral purity: 99.8%
